Data set [1] has as its system endo-α-GalNAcase. Put plainly: Effects of inhibitors (additives) on enzyme activity. It counts as biochemical, Alcaligenes sp. F-1906. Here is the method: (§1) The activity of this enzyme can be measured with asialofetuin as a substrate. The enzyme reaction is carried out in citrate buffer, pH 4.5, at 37° C., and then stopped by adding a borate buffer, pH 9.1, to this reaction mixture. The Gal β1→3GalNAc produced is measured by the method of Reissig. One unit of enzyme activity is defined as the amount of enzyme that releases 1 μmol of Gal β1,→3GalNAc in one minute.
The enzyme was tested for the effects of various kinds of substances.

Another data set deals with asialofetuin. The data set is described as follows: Enzyme activity with asialofetuin as substrate (optimum pH, optimum temperature, activity of purified enzyme). The format is biochemical. How it is done: as §1
(§2) The optimum pH of the enzyme reaction is 4.5-5.0 The enzyme is stable in the pH range of 4.2-6.5. thin this pH range, the activity remains about 90% or more after the enzyme is left at 1 hour at 30° C.
(§3) The optimum temperature for the enzyme reaction is 40-45° C. The temperature at which the enzyme is stable for 10 minutes when kept in a phosphate buffer, pH 6.0, is 30° C. or less. At 40° C., about 70% of the activity remains after such treatment.
Commercially available mucin from pig gastric mucosa was mixed with 1 N sulfuric acid and left for 1 hour at 80° C. for hydrolysis, which removed the sialic acid moiety of the mucin. The hydrolysate was added to the medium at the concentration of 1%. Five hundred milliliters of the medium was put into each of 40 flasks with a capacity of 2 liters, which were sterilized and were inoculated with 5 ml of pre-cultured Alcaligenes sp. F-1906. The flasks were cultured at 28° C. for 3 days. After the culture, the bacterial cells were removed by centrifugation, and the supernatant of the culture was obtained. Ammonium sulfate was added to this supernatant at 0-5° C. and the fractions that precipitated at the saturation of 40-80% ammonium sulfate were collected. This precipitate was dissolved in 0.01 M phosphate buffer, pH 6.0, and then dialyzed overnight against the same buffer. The dialysate was put on a DEAE-Sephadex® A-50 column (5.0×32.5 cm) equilibrated with 0.01 M phosphate buffer. After the column was washed with the same buffer containing 0.2 M NaCl, the enzyme was eluted with the same buffer containing 0.4 M NaCl. […]

Data set [2] can be described thus: pH and temperature stability of the enzyme. The format is physicochemical. Here is the method: as §2, §3
For data set [3], the system named is endo-α-GalNAcase. The data set is described as follows: Substrate specificity of the enzyme. It counts as biochemical, Alcaligenes sp. F-1906.
[4] abbreviates: additive concentration 2.0 mM, no additive = 100.
Setting [5] is: additive concentration 2.5 mM, no additive = 100.
Where [6] appears, read: additive concentration 2.4 mM, no additive = 100.

Read-outs that look alike come from different tables or passages of the source.

In the case of `OC[C@H]1OC(O)[C@H](O)[C@@H](O)[C@@H]1O` (stereo partly drawn) [Glucose], in the data set with endo-α-GalNAcase [1] (setting [4]), the Relative activity came out at 109%. Turning to “endo-α-N-acetylgalactosaminidase [endo-α-GalNAcase]”, in the data set with asialofetuin, the “Optimum pH of the enzyme reaction” value is 4.5-5.0 and the “Optimum temperature for the enzyme reaction” value is 40-45 °C. Moreover, in the data set with asialofetuin (purified form, Example 1), the “relative activity of purified enzyme” value is on record as 2.2 units/mg. The Activity remaining result in data set [2] (40° C., 10 minutes in phosphate buffer, pH 6.0) is reported as “about 70%”. Besides, the “Temperature at which the enzyme is stable” value in data set [2] (10 minutes in phosphate buffer, pH 6.0) was not above 30 °C. Moreover, the “pH range in which the enzyme is stable” value in data set [2] (1 hour at 30° C.) is 4.2-6.5. In data set [2] (within pH 4.2-6.5, 1 hour at 30° C.), this compound showed an Activity remaining not below 90%. With `[Ca+2]` [Ca], the Relative activity with endo-α-GalNAcase [1] (setting [5]) worked out at 109%.

Consider `CC(=O)N[C@H]1[C@H]([C@H](O)[C@H](O)CO)OC(O)(C(=O)O)C[C@@H]1O` (stereo partly drawn) [Sialic acid], for which the Relative activity in the data set on endo-α-GalNAcase [1] (additive concentration 1.0 mM, no additive = 100) came to 106%. With `[Cu+2]` [Cu], the “Inhibition of the enzyme” value with endo-α-GalNAcase [1] (Table 2) is 26-35%. For the same compound, in the data set with endo-α-GalNAcase [1] (setting [5]), the Relative activity is given as 74%. For the compound `CCN1C(=O)C=CC1=O` [N-Ethylmaleimide], the “Effect on enzyme activity (in words)” value in the data set on endo-α-GalNAcase [1] (Table 2) was “almost unaffected”. Besides, the Relative activity with endo-α-GalNAcase [1] (setting [6]) is 105%. With “asialofetuin: glycoprotein with O-glycosidic Gal β1→3GalNAc α→Ser (or Thr) sugar chains, used as substrate”, in the data set on endo-α-GalNAcase [3], the “Use as substrate of the enzyme” value is recorded as “can be used as substrates”. Take `N[C@H]1C(O)O[C@H](CO)[C@@H](O)[C@@H]1O` (stereo partly drawn) [Glucosamine]: the Relative activity with endo-α-GalNAcase [1] (setting [4]) came out at 111%.

As to `OC[C@H]1OC(O)[C@H](O)[C@@H](O)[C@H]1O` (stereo partly drawn) [Galactose], the Relative activity in the data set with endo-α-GalNAcase [1] (setting [4]) is 107%. Same read-out and setting: then `N[C@H]1C(O)O[C@H](CO)[C@H](O)[C@@H]1O` (stereo partly drawn) [Galactosamine], with 106%. As to `O=C(O)CN(CCN(CC(=O)O)CC(=O)O)CC(=O)O` [Ethylenediamine-tetraacetic acid], in the data set with endo-α-GalNAcase [1] (setting [5]), the Relative activity came out at 97%.

Regarding `O=C(O)c1cc[c]([Hg][Cl])cc1` [p-Chloromercuribenzoic acid], the “Effect on enzyme activity (in words)” value in the data set with endo-α-GalNAcase [1] (Table 2) is listed as “almost unaffected”. For the same compound, the Relative activity with endo-α-GalNAcase [1] (setting [6]) is given as 99%.

As to `[Mn+2]` [Mn], the “Inhibition of the enzyme” value in the data set on endo-α-GalNAcase [1] (Table 2) is given as 26-35%. For the same compound, the Relative activity with endo-α-GalNAcase [1] (setting [5]) is reported as 65%. On to `[Zn+2]` [Zn], for which, in the data set with endo-α-GalNAcase [1] (setting [5]), the Relative activity came out at 88%. For the compound `N[C@@H](CS)C(=O)O` [Cysteine], the “Inhibition of the enzyme” value in the data set with endo-α-GalNAcase [1] (Table 2) is reported as “approximately 30%”. The Relative activity in the data set on endo-α-GalNAcase [1] (setting [6]) was found to be 68%. For the compound `OCCS` [Mercaptoethanol], in the data set on endo-α-GalNAcase [1] (Table 2), the “Effect on enzyme activity (in words)” value is reported as “almost unaffected”. Moreover, in the data set on endo-α-GalNAcase [1] (setting [6]), the Relative activity was 97%. `O=C(O)CI` [Iodoacetic acid]: the “Effect on enzyme activity (in words)” value with endo-α-GalNAcase [1] is recorded as “almost unaffected”. In the data set on endo-α-GalNAcase [1] (endo-alpha-galnacase, pH 4.5, 2400 µM), the Relative activity was found to be 109%.

The record behind these values is US4990450A, “Method of producing endo-α-N-acetylgalactosaminidase from microorganisms” (Seitetsu Kagaku Co., Ltd., priority 1987, dated 1991).
